Experimental data taken from US9458145B2, “Benzimidazole derivatives as bromodomain inhibitors” (Gilead Sciences, Inc., priority 2013, dated 2016).
Where two headings read alike, the source gives them in different places.

Test system: MT-4 cells
Assay: MT-4 proliferation assay
Format: cell-based, human
Description: MT-4 Proliferation Assay:
Compounds were tested in a standardized high-throughput 384-well assay format. Each compound was serially diluted 3-fold in 100% DMSO in polypropylene 384-well plates using a Biomek FX Workstation, and 0.4 μL compound added to an assay plate containing 40 μL RPMI media. Compounds were arranged in a horizontal pattern, with 10 concentrations per compound, and 8 compounds added per plate. Due to low DMSO tolerability, the final DMSO concentration never exceeded 0.5% (v/v). Each assay plate contained 10 μM Puromycin and 0.5% DMSO in RPMI-1640 as positive and negative controls respectively. MT-4 cells (HTLV-1 transformed, human T lymphoblastoid cells, NIH Aids Reagent program) were added in volumes of 35 μL per well and 2,000 cells per well using a Biotek uFlow Workstation (Biotek, Winooski, Vt.), and the plates subsequently incubated for 5 days at 37° C. in an incubator set at 5% CO2 and 90% humidity.
After 5 days, 22 μL Cell Titer Glo (Promega) was added to the assay plates with a Biotek uFlow Workstation. Plates were subsequently placed on a Perkin Elmer Envision Plate Reader for 5 minutes before the luminescence signal was read.

[1] = Homo sapiens, MT4, 120 h, Table 1, 5 days, Cell Titer Glo, method text calls it EC50, read-out: MT4 Assay, (IC50)

| Compound | IC50 [1] [nM] | other results |
| --- | --- | --- |
| Cc1noc(C)c1-c1cc(S(=O)(=O)NC2CCCC2)c2nc(NCC3CC3)[nH]c2c1 [Compound 1020-1, N-Cyclopentyl-2-(cyclopropylmethylamino)-6-(3,5-dimethylisoxazol-4-yl)-1H-benzo[d]imidazole-4-sulfonamide] | 193 |  |
| CSc1nc2c(S(=O)(=O)NC3CCCC3)cc(-c3c(C)noc3C)cc2[nH]1 [Compound 1020-4, N-Cyclopentyl-6-(3,5-dimethylisoxazol-4-yl)-2-(methylthio)-1H-benzo[d]imidazole-4-sulfonamide] | 192 |  |
| Cc1noc(C)c1-c1cc(S(=O)(=O)NC2CCCC2)c2nc([S+](C)[O-])[nH]c2c1 (stereo not shown) [Compound 1020-5, N-Cyclopentyl-6-(3,5-dimethylisoxazol-4-yl)-2-(methylsulfinyl)-1H-benzo[d]imidazole-4-sulfonamide] |  | IC50 (Homo sapiens, MT4, 120 h, read-out: MT4 Assay, (IC50, nM)): 329 nM |
| Cc1cnn(C)c1-c1cc(-c2c(C)noc2C)cc2nc(C3CC3)[nH]c12 [Compound 1020-12, 4-(2-Cyclopropyl-7-(1,4-dimethyl-1H-pyrazol-5-yl)-1H-benzo[d]imidazol-5-yl)-3,5-dimethylisoxazole] | 21.3 |  |
| Cc1noc(C)c1-c1cc(-c2cccnc2-c2ccccc2)c2nc(C3CC3)[nH]c2c1 [Compound 1020-19, 4-(2-Cyclopropyl-4-(2-phenylpyridin-3-yl)-1H-benzo[d]imidazol-6-yl)-3,5-dimethylisoxazole] | 24.4 |  |
| CC/C=C(\CC)c1cc(-c2c(C)noc2C)cc2nc(C3CC3)[nH]c12 [Compound 1020-28, (E)-4-(2-Cyclopropyl-4-(hex-3-en-3-yl)-1H-benzo[d]imidazol-6-yl)-3,5-dimethylisoxazole] | 51.6 |  |
| Cc1noc(C)c1-c1cc(/C=C/c2ccccc2)c2[nH]c(C3CC3)nc2c1 [Compound 1020-37, (E)-4-(2-cyclopropyl-4-styryl-1H-benzo[d]imidazol-6-yl)-3,5-dimethylisoxazole] | 518 |  |
| Cc1noc(C)c1-c1cc(C(C)c2ccc(F)cc2)c2[nH]c(C3CC3)nc2c1 (stereo not shown) [Compound 1020-44, 4-(2-Cyclopropyl-4-(1-(4-fluorophenyl)ethyl)-1H-benzo[d]imidazol-6-yl)-3,5-dimethylisoxazole] | 86.1 |  |
| Cc1noc(C)c1-c1cc(NC2CCCC2)c2nc(C3CC3)[nH]c2c1 [Compound 1020-50, N-Cyclopentyl-2-cyclopropyl-6-(3,5-dimethylisoxazol-4-yl)-1H-benzo[d]imidazol-4-amine] | 353 |  |
| Cc1ccnc(C)c1-c1cc(-c2c(C)noc2C)cc2nc(C3CC3)[nH]c12 [Compound 1020-57, 4-(2-Cyclopropyl-7-(2,4-dimethylpyridin-3-yl)-1H-benzo[d]imidazol-5-yl)-3,5-dimethylisoxazole] | 13.6 |  |
| Cc1n[nH]c(C)c1-c1cc(-c2c(C)noc2C)cc2nc(C3CC3)n(C)c12 [Compound 1020-72, 4-(2-cyclopropyl-7-(3,5-dimethyl-1H-pyrazol-4-yl)-1-methyl-1H-benzo[d]imidazol-5-yl)-3,5-dimethylisoxazole] | 6.5 |  |
| Cc1ccc2ncccc2c1-c1cc(-c2c(C)noc2C)cc2nc(C3CC3)n(C)c12 [Compound 1020-74, 4-(2-Cyclopropyl-1-methyl-7-(6-methylquinolin-5-yl)-1H-benzo[d]imidazol-5-yl)-3,5-dimethylisoxazole] | 15.3 |  |
| Cc1n[nH]c(C)c1-c1cc(-c2c(C)noc2C)cc2[nH]c(C3CCC3)nc12 [Compound 1020-75, 4-(2-Cyclobutyl-4-(3,5-dimethyl-1H-pyrazol-4-yl)-1H-benzo[d]imidazol-6-yl)-3,5-dimethylisoxazole] |  | IC50 (Table 1, 5 days, Cell Titer Glo, method text calls it EC50, read-out: MT4 Assay, (IC50)): 18.4 nM |
| Cc1nc2cc(-c3c(C)noc3C)cc(-c3c(C)n[nH]c3C)c2[nH]1 [Compound 1020-77, 4-(7-(3,5-Dimethyl-1H-pyrazol-4-yl)-2-methyl-1H-benzo[d]imidazol-5-yl)-3,5-dimethylisoxazole] | 39.4 |  |
| Cc1n[nH]c(C)c1-c1cc(-c2c(C)noc2C)cc2nc(C3CC3(F)F)[nH]c12 (stereo not shown) [Compound 1020-78, 4-(2-(2,2-Difluorocyclopropyl)-7-(3,5-dimethyl-1H-pyrazol-4-yl)-1H-benzo[d]imidazol-5-yl)-3,5-dimethylisoxazole] | 25.7 |  |
| Cc1n[nH]c(C)c1-c1cc(-c2c(C)noc2C)cc2[nH]c(NCC3CC3)nc12 [Compound 1020-79, N-(Cyclopropylmethyl)-4-(3,5-dimethyl-1H-pyrazol-4-yl)-6-(3,5-dimethylisoxazol-4-yl)-1H-benzo[d]imidazol-2-amine] | 33.8 |  |

| Compound | IC50 [1] [nM] | other results |
| --- | --- | --- |
| Cc1n[nH]c(C)c1-c1cc(-c2c(C)noc2C)cc2[nH]c(NC3CC3)nc12 [Compound 1020-81, N-Cyclopropyl-4-(3,5-dimethyl-1H-pyrazol-4-yl)-6-(3,5-dimethylisoxazol-4-yl)-1H-benzo[d]imidazol-2-amine] | 7.6 |  |
| Cc1ccnc(C)c1-c1cc(-c2c(C)noc2C)cc2[nH]cnc12 [Compound 1020-84, 4-(4-(2,4-Dimethylpyridin-3-yl)-1H-benzo[d]imidazol-6-yl)-3,5-dimethylisoxazole] | 236 |  |
| Cc1ccc2ncccc2c1-c1cc(-c2c(C)noc2C)cc2[nH]c(-c3cnn(C)c3)nc12 [Compound 1020-88, 3,5-Dimethyl-4-(2-(1-methyl-1H-pyrazol-4-yl)-4-(6-methylquinolin-5-yl)-1H-benzo[d]imidazol-6-yl)isoxazole] | 45.2 |  |
| Cc1ccc2ncccc2c1-c1cc(-c2c(C)noc2C)cc2[nH]c(C(O)CCO)nc12 (stereo not shown) [Compound 1020-89, 1-(6-(3,5-dimethylisoxazol-4-yl)-4-(6-methylquinolin-5-yl)-1H-benzo[d]imidazol-2-yl)propane-1,3-diol] | 104 |  |
| COc1nc2c(-c3c(C)ccc4ncccc34)cc(-c3c(C)noc3C)cc2[nH]1 [Compound 1020-90, 4-(2-methoxy-4-(6-methylquinolin-5-yl)-1H-benzo[d]imidazol-6-yl)-3,5-dimethylisoxazole] | 25 |  |
| Cc1ccc2ncccc2c1-c1cc(-c2c(C)noc2C)cc2[nH]c(C(F)(F)F)nc12 [Compound 1020-92, 3,5-Dimethyl-4-(4-(6-methylquinolin-5-yl)-2-(trifluoromethyl)-1H-benzo[d]imidazol-6-yl)isoxazole] | 73.1 |  |
| Cc1n[nH]c(C)c1-c1cc(-c2c(C)noc2C)cc2nc(N)[nH]c12 [Compound 1020-96, 4-(3,5-Dimethyl-1H-pyrazol-4-yl)-6-(3,5-dimethylisoxazol-4-yl)-1H-benzo[d]imidazol-2-amine] | 318 |  |
| Cc1noc(C)c1-c1cc(C(O)(c2ccccc2)c2ccccc2)c2nc(C3CC3)[nH]c2c1 [Compound 1020-102, (2-Cyclopropyl-6-(3,5-dimethylisoxazol-4-yl)-1H-benzo[d]imidazol-4-yl)diphenylmethanol] | 49.7 |  |
| CCC(CC)c1cc(-c2c(C)noc2C)cc2[nH]c(C3CC3)nc12 [Compound 1020-120, 4-(2-Cyclopropyl-4-(pentan-3-yl)-1H-benzo[d]imidazol-6-yl)-3,5-dimethylisoxazole] | 48.8 |  |
| Cc1noc(C)c1-c1cc(C(O)C2CCCC2)c2nc(C3CC3)[nH]c2c1 (stereo not shown) [Compound 1020-121, Cyclopentyl(2-cyclopropyl-6-(3,5-dimethylisoxazol-4-yl)-1H-benzo[d]imidazol-4-yl)methanol] | 42.8 |  |
| CCC(O)(CC)c1cc(-c2c(C)noc2C)cc2c1nc(C1CC1)n2C [Compound 1020-132, 3-(2-Cyclopropyl-6-(3,5-dimethylisoxazol-4-yl)-1-methyl-1H-benzo[d]imidazol-4-yl)pentan-3-ol] | 544 |  |
| Cc1noc(C)c1-c1cc(N2C(=O)CCC2C)c2nc(C3CC3)[nH]c2c1 (stereo not shown) [Compound 1020-136, 1-(2-Cyclopropyl-6-(3,5-dimethylisoxazol-4-yl)-1H-benzo[d]imidazol-4-yl)-5-methylpyrrolidin-2-one] | 335 |  |
| CCC1CCC(=O)N1c1cc(-c2c(C)noc2C)cc2[nH]c(C3CC3)nc12 (stereo not shown) [Compound 1020-137, 1-(2-Cyclopropyl-6-(3,5-dimethylisoxazol-4-yl)-1H-benzo[d]imidazol-4-yl)-5-ethylpyrrolidin-2-one] | 113 |  |
| Cc1noc(C)c1-c1cc(S(=O)(=O)NC2CCCC2)c2nc(Cc3ccccc3)[nH]c2c1 [Compound 1020-141, 2-Benzyl-N-cyclopentyl-6-(3,5-dimethylisoxazol-4-yl)-1H-benzo[d]imidazole-4-sulfonamide] | 887 |  |
| Cc1noc(C)c1-c1cc(S(=O)(=O)NC2CCCC2)c2nc(NCC(F)(F)F)[nH]c2c1 [Compound 1020-148] | 495 |  |
